Assay results from ChEMBL document CHEMBL3045826, “Synthesis of new derivatives of 2,2-dimethyl-2,3-dihydro-7-benzo[b]furanol with potential antimicrobial activity” (Med Chem Res, 2009).
≈ marks a conversion by molar mass, not a printed value. Calls of active or inactive are those of the source. No cut-off for these calls is given here.

Experiments:
Escherichia coli [1] = assay: Antibacterial activity against Escherichia coli ATCC 10538 at 400 ug after 18 hr by disk diffusion method; assay type: functional
Pseudomonas aeruginosa [2] = assay: Antibacterial activity against Pseudomonas aeruginosa NCTC 6749 at 400 ug after 18 hr by disk diffusion method; assay type: functional, organism-based
Escherichia coli [3] = assay: Antibacterial activity against Escherichia coli NCTC 8196 at 400 ug after 18 hr by disk diffusion method; assay type: functional
Escherichia coli [4] = assay: Antibacterial activity against Escherichia coli ATCC 25922 at 400 ug after 18 hr by disk diffusion method; assay type: functional
Staphylococcus aureus [5] = assay: Antibacterial activity against Staphylococcus aureus ATCC 29213 at 400 ug after 18 hr by disk diffusion method; assay type: functional; settings: for zone of inhibition at 400 µg/disc: ATCC 29213, 18 h, read-out: DIZ
[6] = test system: Human immunodeficiency virus 1; assay: Antiviral activity against Human immunodeficiency virus 1 infected human MT4 cells assessed as inhibition of virus-induced cytopathogenicity after 4 days by MTT assay; assay type: functional, organism-based; settings: Human immunodeficiency virus 1, MT4, 96 h
[7] = test system: Bordetella bronchiseptica; assay: Antibacterial activity against Bordetella bronchiseptica ATCC 461 at 400 ug after 18 hr by disk diffusion method; assay type: functional
Staphylococcus aureus [8] = assay: Antibacterial activity against Staphylococcus aureus ATCC 25923 at 400 ug after 18 hr by disk diffusion method; assay type: functional; settings: for zone of inhibition at 400 µg/disc: ATCC 25923, 18 h, read-out: DIZ
Pseudomonas aeruginosa [9] = assay: Antibacterial activity against Pseudomonas aeruginosa ATCC 15442 at 400 ug after 18 hr by disk diffusion method; assay type: functional; settings: for zone of inhibition at 400 µg/disc: ATCC 15442, 18 h, read-out: DIZ
Candida albicans [10] = assay: Antifungal activity against Candida albicans ATCC 90028 at 400 ug after 24 to 48 hr by disk diffusion method; assay type: functional; settings: for zone of inhibition at 400 µg/disc: read-out: DIZ
Staphylococcus aureus [11] = assay: Antibacterial activity against Staphylococcus aureus ATCC 6538P at 400 ug after 18 hr by disk diffusion method; assay type: functional; settings: for zone of inhibition at 400 µg/disc: read-out: DIZ
Candida parapsilosis [12] = assay: Antifungal activity against Candida parapsilosis ATCC 22019 at 400 ug after 24 to 48 hr by disk diffusion method; assay type: functional; settings: for zone of inhibition at 400 µg/disc: Lodderomyces parapsilosis, read-out: DIZ
Bacillus subtilis [13] = assay: Antibacterial activity against Bacillus subtilis ATCC 6633 at 400 ug after 18 hr by disk diffusion method; assay type: functional; settings: for zone of inhibition at 400 µg/disc: ATCC 6633, 18 h, read-out: DIZ
Candida albicans [14] = assay: Antifungal activity against Candida albicans ATCC 10231 at 400 ug after 24 to 48 hr by disk diffusion method; assay type: functional; settings: for zone of inhibition at 400 µg/disc: read-out: DIZ
Staphylococcus aureus [15] = assay: Antibacterial activity against Staphylococcus aureus NCTC 4163 at 400 ug after 18 hr by disk diffusion method; assay type: functional; settings: for zone of inhibition at 400 µg/disc: NCTC 4163, 18 h, read-out: DIZ
Proteus vulgaris [16] = assay: Antibacterial activity against Proteus vulgaris NCTC 4635 at 400 ug after 18 hr by disk diffusion method; assay type: functional; settings: for zone of inhibition at 400 µg/disc: NCTC 4635, 18 h, read-out: DIZ
[17] = Cytotoxicity against Homo sapiens (human) MT4 cells after 96 hr by MTT assay; assay type: cell-based
Enterococcus hirae [18] = assay: Antibacterial activity against Enterococcus hirae ATCC 10541 at 400 ug after 18 hr by disk diffusion method; assay type: functional; settings: for zone of inhibition at 400 µg/disc: ATCC 10541, 18 h, read-out: DIZ
Escherichia coli [19] = assay: Antibacterial activity against Escherichia coli ATCC 10538 after 18 hr; assay type: functional, organism-based
[20] = test system: Bordetella bronchiseptica; assay: Antibacterial activity against Bordetella bronchiseptica ATCC 461 after 18 hr; assay type: functional, organism-based
Candida parapsilosis [21] = assay: Antifungal activity against Candida parapsilosis ATCC 22019 after 18 hr; assay type: functional; settings: Lodderomyces parapsilosis, ATCC 22019, 18 h
Staphylococcus aureus [22] = assay: Antibacterial activity against Staphylococcus aureus ATCC 25923 after 18 hr; assay type: functional; settings: ATCC 25923, 18 h
Escherichia coli [23] = assay: Antibacterial activity against Escherichia coli NCTC 8196 after 18 hr; assay type: functional, organism-based
Staphylococcus aureus [24] = assay: Antibacterial activity against Staphylococcus aureus NCTC 4163 after 18 hr; assay type: functional; settings: NCTC 4163, 18 h
Bacillus subtilis [25] = assay: Antibacterial activity against Bacillus subtilis ATCC 6633 after 18 hr; assay type: functional; settings: ATCC 6633, 18 h
Candida albicans [26] = assay: Antifungal activity against Candida albicans ATCC 10231 after 18 hr; assay type: functional; settings: ATCC 10231, 18 h
Pseudomonas aeruginosa [27] = assay: Antibacterial activity against Pseudomonas aeruginosa NCTC 6749 after 18 hr; assay type: functional, organism-based
Staphylococcus aureus [28] = assay: Antibacterial activity against Staphylococcus aureus ATCC 6538P after 18 hr; assay type: functional
Candida albicans [29] = assay: Antifungal activity against Candida albicans ATCC 90028 after 18 hr; assay type: functional; settings: ATCC 90028, 18 h
Enterococcus hirae [30] = assay: Antibacterial activity against Enterococcus hirae ATCC 10541 after 18 hr; assay type: functional; settings: ATCC 10541, 18 h
Pseudomonas aeruginosa [31] = assay: Antibacterial activity against Pseudomonas aeruginosa ATCC 15442 after 18 hr; assay type: functional; settings: ATCC 15442, 18 h
Proteus vulgaris [32] = assay: Antibacterial activity against Proteus vulgaris NCTC 4635 after 18 hr; assay type: functional; settings: NCTC 4635, 18 h
Escherichia coli [33] = assay: Antibacterial activity against Escherichia coli ATCC 25922 after 18 hr; assay type: functional, organism-based
Staphylococcus aureus [34] = assay: Antibacterial activity against Staphylococcus aureus ATCC 29213 after 18 hr; assay type: functional; settings: ATCC 29213, 18 h

Row | SMILES | diameter of the inhibition zone (DIZ) (Escherichia coli [1]) | diameter of the inhibition zone (DIZ) (Pseudomonas aeruginosa [2]) | diameter of the inhibition zone (DIZ) (Escherichia coli [3]) | diameter of the inhibition zone (DIZ) (Escherichia coli [4]) | diameter of the inhibition zone (DIZ) [7] | MIC (Escherichia coli [19]) | MIC [20] | MIC (Candida parapsilosis [21]) | MIC (Staphylococcus aureus [22]) | MIC (Escherichia coli [23]) | MIC (Staphylococcus aureus [24]) | zone of inhibition at 400 µg/disc (Staphylococcus aureus [5]) | MIC (Bacillus subtilis [25]) | MIC (Candida albicans [26]) | zone of inhibition at 400 µg/disc (Staphylococcus aureus [8]) | zone of inhibition at 400 µg/disc (Pseudomonas aeruginosa [9]) | zone of inhibition at 400 µg/disc (Candida albicans [10]) | MIC (Pseudomonas aeruginosa [27]) | zone of inhibition at 400 µg/disc (Staphylococcus aureus [11]) | MIC (Staphylococcus aureus [28]) | further results
1 | CC1(C)Cc2cccc(O)c2O1 | inactive | inactive | inactive | inactive | inactive | – | – | – | – | – | – | – | – | – | – | – | – | – | – | – | diameter of the inhibition zone (DIZ) (Staphylococcus aureus [5]): inactive; EC50 [6]: > 100 µM; diameter of the inhibition zone (DIZ) (Staphylococcus aureus [8]): inactive; diameter of the inhibition zone (DIZ) (Pseudomonas aeruginosa [9]): inactive; diameter of the inhibition zone (DIZ) (Candida albicans [10]): inactive; diameter of the inhibition zone (DIZ) (Staphylococcus aureus [11]): inactive; diameter of the inhibition zone (DIZ) (Candida parapsilosis [12]): inactive; diameter of the inhibition zone (DIZ) (Bacillus subtilis [13]): inactive; diameter of the inhibition zone (DIZ) (Candida albicans [14]): inactive; diameter of the inhibition zone (DIZ) (Staphylococcus aureus [15]): inactive; diameter of the inhibition zone (DIZ) (Proteus vulgaris [16]): inactive; CC50 at 96 h [17]: 100 µM; diameter of the inhibition zone (DIZ) (Enterococcus hirae [18]): inactive
2 | CC1(C)Cc2c(Br)c(Br)c(Br)c(OCC(O)CN3CCCCC3)c2O1 (stereo unspecified) | inactive | inactive | inactive | inactive | inactive | inactive | inactive | 100 µg/mL (≈ 184 µM) | 50 µg/mL (≈ 92.2 µM) | inactive | 50 µg/mL (≈ 92.2 µM) | 16 mm | 12.5 µg/mL (≈ 23.1 µM) | 100 µg/mL (≈ 184 µM) | 16 mm | 20 mm | 18 mm | inactive | 17 mm | 50 µg/mL (≈ 92.2 µM) | MIC (Candida albicans [29]): 100 µg/mL (≈ 184 µM); zone of inhibition at 400 µg/disc (Candida parapsilosis [12]): 18 mm; zone of inhibition at 400 µg/disc (Bacillus subtilis [13]): 19 mm; MIC (Enterococcus hirae [30]): 50 µg/mL (≈ 92.2 µM); MIC (Pseudomonas aeruginosa [31]): 25 µg/mL (≈ 46.1 µM); MIC (Proteus vulgaris [32]): 50 µg/mL (≈ 92.2 µM); MIC (Escherichia coli [33]): inactive; MIC (Staphylococcus aureus [34]): 100 µg/mL (≈ 184 µM); zone of inhibition at 400 µg/disc (Candida albicans [14]): 18 mm; zone of inhibition at 400 µg/disc (Staphylococcus aureus [15]): 18 mm; zone of inhibition at 400 µg/disc (Proteus vulgaris [16]): 20 mm; zone of inhibition at 400 µg/disc (Enterococcus hirae [18]): 17 mm
3 | CN(C)CC(O)COc1c(Br)c(Br)c(Br)c2c1OC(C)(C)C2 (stereo unspecified) | – | inactive | – | – | – | inactive | inactive | 100 µg/mL (≈ 199 µM) | 100 µg/mL (≈ 199 µM) | inactive | 50 µg/mL (≈ 99.6 µM) | 19 mm | 12.5 µg/mL (≈ 24.9 µM) | 200 µg/mL (≈ 398 µM) | 18 mm | 23 mm | 15 mm | inactive | 19 mm | 50 µg/mL (≈ 99.6 µM) | zone of inhibition at 400 µg/disc (Escherichia coli [1]; ATCC 10538, 18 h, read-out: DIZ): 13 mm; zone of inhibition at 400 µg/disc (Escherichia coli [3]; NCTC 8196, 18 h, read-out: DIZ): 15 mm; zone of inhibition at 400 µg/disc (Escherichia coli [4]; ATCC 25922, 18 h, read-out: DIZ): 13 mm; zone of inhibition at 400 µg/disc ([7]; ATCC 461, 18 h, read-out: DIZ): 13 mm; MIC (Candida albicans [29]): 200 µg/mL (≈ 398 µM); zone of inhibition at 400 µg/disc (Candida parapsilosis [12]): 20 mm; zone of inhibition at 400 µg/disc (Bacillus subtilis [13]): 24 mm; MIC (Enterococcus hirae [30]): 50 µg/mL (≈ 99.6 µM); MIC (Pseudomonas aeruginosa [31]): 25 µg/mL (≈ 49.8 µM); MIC (Proteus vulgaris [32]): 25 µg/mL (≈ 49.8 µM); MIC (Escherichia coli [33]): inactive; MIC (Staphylococcus aureus [34]): 100 µg/mL (≈ 199 µM); zone of inhibition at 400 µg/disc (Candida albicans [14]): 17 mm; zone of inhibition at 400 µg/disc (Staphylococcus aureus [15]): 18 mm; zone of inhibition at 400 µg/disc (Proteus vulgaris [16]): 23 mm; zone of inhibition at 400 µg/disc (Enterococcus hirae [18]): 19 mm
4 | CC1(C)Cc2c(Br)c(Br)c(Br)c(O)c2O1 | inactive | inactive | inactive | inactive | inactive | inactive | inactive | 200 µg/mL (≈ 499 µM) | 25 µg/mL (≈ 62.4 µM) | inactive | 25 µg/mL (≈ 62.4 µM) | 18 mm | 12.5 µg/mL (≈ 31.2 µM) | 200 µg/mL (≈ 499 µM) | 18 mm | 22 mm | 14 mm | inactive | 19 mm | 25 µg/mL (≈ 62.4 µM) | EC50 [6]: > 60 µM; MIC (Candida albicans [29]): 200 µg/mL (≈ 499 µM); zone of inhibition at 400 µg/disc (Candida parapsilosis [12]): 13 mm; zone of inhibition at 400 µg/disc (Bacillus subtilis [13]): 21 mm; MIC (Enterococcus hirae [30]): 50 µg/mL (≈ 125 µM); MIC (Pseudomonas aeruginosa [31]): 12.5 µg/mL (≈ 31.2 µM); MIC (Proteus vulgaris [32]): 12.5 µg/mL (≈ 31.2 µM); MIC (Escherichia coli [33]): inactive; MIC (Staphylococcus aureus [34]): 25 µg/mL (≈ 62.4 µM); zone of inhibition at 400 µg/disc (Candida albicans [14]): 13 mm; zone of inhibition at 400 µg/disc (Staphylococcus aureus [15]): 17 mm; zone of inhibition at 400 µg/disc (Proteus vulgaris [16]): 15 mm; CC50 at 96 h [17]: 60 µM; zone of inhibition at 400 µg/disc (Enterococcus hirae [18]): 16 mm
